Experimental data taken from patent publication US9930888B2, “Composition” (Conopco, Inc., priority 2013, dated 2018).

How the values were obtained:
S. epidermidis = assay: bacterial respiration of S. epidermidis suspension in microplate; assay type: cell-based; settings: lactam pre-blended with hydrotrope, added to remainder of composition, diluted to 11.5 ppm and 0.575 ppm; 20 hours
Experimental: Test samples were diluted in sterile water to achieve a 11.5 ppm level of lactam. Dilute solution (80 μl) was added to a S. epidermidis suspension (20 μl) of bacteria at a concentration of 8 logs in a microplate. Growth media (100 μl tryptone soya broth) was added to each well of the microplate and incubated for 20 hours. Bacterial respiration was measured every 30 minutes and the results were: • A—lactam+hydrotrope only (respiration of surviving bacteria detected ˜4-5 h) • B—lactam added directly to base formulation (which contains MPG)—no pre-mixing prior to addition (respiration of surviving bacteria detected 4-5 hrs) • C—lactam pre-mixed with hydrotrope and then added to base formulation (respiration of surviving bacteria not detected—20 hrs is max detection time) • D—hydrotrope added to base formulation (respiration of surviving bacteria detected 3-4 hrs). The example below is from data obtained when pre-blending lactams with hydrotrope before adding to the remainder of the composition, and diluting to 11.5 ppm and 0.575 ppm in sterile water in order to assess efficacy against S. epidermidis suspension Dilute solution (80 μl) was added to a S. epidermidis suspension (20 μl) of bacteria at a concentration of 8 logs in a microplate. Growth media (100 μl tryptone soya broth) was added to each well of the microplate and incubated for 20 hours. Bacterial respiration was measured every 30 minutes. Data of the test samples were then compared to un-treated cell suspensions (sterile water added instead of test samples) and percent inhibition calculated.

[1] = appearance of lactam solution when added to base formulation at 5%; assay type: physicochemical; settings: 3% lactam in PEG-60 Hydrogenated Castor Oil; Magnetic stirring 1 hour
Excerpt: We ensured the lactam solutions were fully uniform through constant mechanical agitation (to avoid the settling of any unsolubilised lactam material) and added them to base using slow speed stirring to incorporate them without generating aeration.

[2] = solubility of lactam in candidate solubilisers (magnetic stirring or ultrasonic mixing); assay type: physicochemical; settings: 1% lactam in PEG-40 Hydrogenated Castor Oil; Magnetic stirring 24 hours
[3] = as above; assay type: physicochemical
Experimental: An Ultrasonic mixer was used to obtain determine solubility.
We used a Hielscher UP200S (200W) Sonic Tip on batches of 5-20 ml. We sonicated for up to 60 minutes.
We then tested the candidate solubilisers with 1% lactam, both with 72 hours high speed magnetic stirring (with held temperature of ˜500 in the cases of solubilisers that solidify alone at room temperature) and also 20 minutes Sonication.
In each case we incorporated the lactam powder into the solubilisers (at the levels indicated in the below table) using high speed stirring to avoid lumps from forming. Once the powder was added, the described mixing method (either continued high speed stirring or Ultrasonic mixing) commenced. In the cases of Sorbitan Oleate and Polysorbate-60, we applied initial heating to approx. 500 to ensure the solubilisers were fully liquid prior to commencing addition of the lactam. Both of these materials are non-flowing at room temperature. PEG-40 Hydrogenated Castor required initial heating to ˜350 to ensure complete fluidity prior to commencing.

Observations when added to base @ 5% [1]: Cloudy in solution
Observations of solvent solution: % of lactam solubilised [2]: ~75% of lactam
Observations of solvent solution: % of lactam solubilised ([3]; 1% lactam in 3-Methoxy-3-methyl-1-butanol, 20 minutes sonication, temp reached 60-70 C., forced): ~5% of lactam
Observations of solvent solution ([3]; 1% lactam in 3-Methoxy-3-methyl-1-butanol, Magnetic stirring 72 hours): No solubility
Observations of solvent solution ([3]; 1% lactam in Diglycerin, 20 minutes sonication, temp reached 60-70 C.): No solubility
Observations of solvent solution ([3]; 1% lactam in Diglycerin, Magnetic stirring 72 hours): No solubility
Observations of solvent solution: % of lactam solubilised ([3]; 1% lactam in Isopentyldiol, 20 minutes sonication, temp reached 60-70 C., forced): ~5% of lactam
Observations of solvent solution ([3]; 1% lactam in Isopentyldiol, Magnetic stirring 72 hours): No solubility
Observations of solvent solution: % of lactam solubilised ([3]; 1% lactam in PEG-40 Hydrogenated Castor Oil, Magnetic stirring 72 hours): ~90% of lactam
Observations of solvent solution: % of lactam solubilised ([3]; 1% lactam in PEG-40 Hydrogenated Castor Oil, Magnetic stirring 72 hours with temp. at 50 C.): ~99% of lactam
Observations of solvent solution: % of lactam solubilised ([3]; 1% lactam in PEG-60 Hydrogenated Castor Oil, 20 minutes sonication, temp reached 60-70 C.): ~25% of lactam
Observations of solvent solution: % of lactam solubilised ([3]; 1% lactam in PEG-60 Hydrogenated Castor Oil, Magnetic stirring 72 hours at 50 C.): ~25% of lactam
Observations of solvent solution: % of lactam solubilised ([3]; 1% lactam in Pentylene Glycol, 20 minutes sonication, temp reached 60-70 C.): ~5% of lactam
Observations of solvent solution: % of lactam solubilised ([3]; 1% lactam in Pentylene Glycol, Magnetic stirring 72 hours): ~5% of lactam
Observations of solvent solution: % of lactam solubilised ([3]; 1% lactam in Polysorbate 20, Magnetic stirring 24 hours): ~75% of lactam
Observations of solvent solution: % of lactam solubilised ([3]; 1% lactam in Polysorbate 20, Magnetic stirring 72 hours): ~95% of lactam
Observations of solvent solution: % of lactam solubilised ([3]; 1% lactam in Polysorbate 60, 20 minutes sonication, temp reached 60-70 C.): ~25% of lactam
Observations of solvent solution: % of lactam solubilised ([3]; 1% lactam in Polysorbate 60, Magnetic stirring 72 hours at 50 C.): ~25% of lactam
Observations of solvent solution: % of lactam solubilised ([3]; 1% lactam in Polysorbate 80, 20 minutes sonication, temp reached 60-70 C.): ~25% of lactam
Observations of solvent solution: % of lactam solubilised ([3]; 1% lactam in Polysorbate 80, Magnetic stirring 72 hours at 50 C.): ~25% of lactam
Observations of solvent solution: % of lactam solubilised ([3]; 1% lactam in Sisterna SP30-C, 20 minutes sonication, temp reached 60-70 C.): ~25% of lactam
Observations of solvent solution: % of lactam solubilised ([3]; 1% lactam in Sisterna SP30-C, Magnetic stirring 72 hours at 50 C.): ~25% of lactam
Observations of solvent solution: % of lactam solubilised ([3]; 1% lactam in Sisterna SP50-C, 20 minutes sonication, temp reached 60-70 C.): ~25% of lactam
Observations of solvent solution: % of lactam solubilised ([3]; 1% lactam in Sisterna SP50-C, Magnetic stirring 72 hours at 50 C.): ~25% of lactam
Observations of solvent solution: % of lactam solubilised ([3]; 1% lactam in Sisterna SP70-C, 20 minutes sonication, temp reached 60-70 C.): ~25% of lactam
Observations of solvent solution: % of lactam solubilised ([3]; 1% lactam in Sisterna SP70-C, Magnetic stirring 72 hours at 50 C.): ~25% of lactam
Observations of solvent solution: % of lactam solubilised ([3]; 1.5% lactam in Polysorbate 20, 20 minutes sonication, temp reached 60-70 C.): ~75% of lactam
Observations of solvent solution: % of lactam solubilised ([3]; 1.5% lactam in Polysorbate 20, 60 minutes sonication, temp reached 80-90 C., dark brown colour): ~95% of lactam
Observations of solvent solution: % of lactam solubilised ([3]; 1.5% lactam in Polysorbate 20, Magnetic stirring 48 hours): ~50% of lactam
Observations of solvent solution: % of lactam solubilised ([3]; 1.5 lactam in Polysorbate 20, Magnetic stirring, heated to 50 C. 72 hours): ~75% of lactam
Observations of solvent solution: % of lactam appeared to solubilise ([3]; 2.1% lactam in PEG-40 Hydrogenated Castor Oil, 20 minutes sonication, temp reached 80 C., small amount of 'burnt' spots visible): 90% of lactam
Observations of solvent solution ([3]; 2.1% lactam in PEG-40 Hydrogenated Castor Oil, 60 minutes sonication, temp reached 110 C., very dark colour): lactam solubilised.
Observations of solvent solution: % of lactam solubilised ([3]; 2.1% lactam in PEG-40 Hydrogenated Castor Oil, Magnetic stirring 24 hours): ~50% of lactam
Observations of solvent solution: % of lactam solubilised ([3]; 2.1% lactam in PEG-40 Hydrogenated Castor Oil, Magnetic stirring 48 hours): ~75% of lactam
Observations of solvent solution: % of lactam solubilised ([3]; 2.1% lactam in PEG-40 Hydrogenated Castor Oil, Magnetic stirring, heated to 50 C. 8 hours): ~50% of lactam
Observations of solvent solution: % of lactam solubilised ([3]; 2.1% lactam in Polysorbate 20, 20 minutes sonication, temp reached 60-70 C., dark colour formed): ~90% of lactam
Observations of solvent solution: % of lactam solubilised ([3]; 2.1% lactam in Polysorbate 20, 60 minutes sonication, temp reached 80 C.): 90% of lactam
Observations of solvent solution: % of lactam solubilised ([3]; 2.1% lactam in Polysorbate 20, 60 minutes sonication, temp reached 90-100 C.): 90% of lactam
Observations of solvent solution: % of lactam solubilised ([3]; 2.1% lactam in Polysorbate 20, Magnetic stirring 24 hours): ~50% of lactam
Observations of solvent solution: % of lactam solubilised ([3]; 2.1% lactam in Polysorbate 20, Magnetic stirring 48 hours): ~75% of lactam
Observations of solvent solution: % of lactam solubilised ([3]; 2.1% lactam in Polysorbate 20, Magnetic stirring, heated to 50 C. 8 hours): ~50% of lactam
Observations of solvent solution: % of lactam solubilised ([3]; 2.1% lactam in Polysorbate 20, Magnetic stirring, heated to 50 C. 72 hours): ~75% of lactam
Observations of solvent solution ([3]; 3% lactam in Diglycerin, Magnetic stirring 1 hour): No solubility
Observations of solvent solution: % of lactam solubilised ([3]; 3% lactam in Dipropylene Glycol, Magnetic stirring 1 hour): ~5% of lactam
Observations of solvent solution ([3]; 3% lactam in Hexylene Glycol, Magnetic stirring 1 hour): No solubility
Observations of solvent solution ([3]; 3% lactam in Isopentyldiol, Magnetic stirring 1 hour): No solubility
Observations of solvent solution ([3]; 3% lactam in MMB, Magnetic stirring 1 hour): No solubility
Observations of solvent solution: % of lactam solubilised ([3]; 3% lactam in PEG-40 Hydrogenated Castor Oil, 20 minutes sonication, temp reached 60-70 C.): ~75% of lactam
Observations of solvent solution: % of lactam solubilised ([3]; 3% lactam in PEG-40 Hydrogenated Castor Oil, 60 minutes sonication, temp reached 80 C.): ~75% of lactam
Observations of solvent solution: % of lactam solubilised ([3]; 3% lactam in PEG-40 Hydrogenated Castor Oil, Magnetic stirring 1 hour): ~25% of lactam
Observations of solvent solution: % of lactam solubilised ([3]; 3% lactam in PEG-60 Hydrogenated Castor Oil, Magnetic stirring 1 hour): ~10% of lactam
Observations of solvent solution ([3]; 3% lactam in Pentylene Glycol, Magnetic stirring 1 hour): No solubility
Observations of solvent solution: % of lactam solubilised ([3]; 3% lactam in Polysorbate 20, 20 minutes sonication, temp reached 60-70 C.): ~50% of lactam
Observations of solvent solution: % of lactam solubilised ([3]; 3% lactam in Polysorbate 20, 60 minutes sonication, temp reached 90 C.): ~60-70% of lactam
Observations of solvent solution: % of lactam solubilised ([3]; 3% lactam in Polysorbate 20, Magnetic stirring 1 hour): ~25% of lactam
Observations of solvent solution: % of lactam solubilised ([3]; 3% lactam in Polysorbate 60, Magnetic stirring 1 hour, 50 C.): ~10% of lactam
Observations of solvent solution: % of lactam solubilised ([3]; 3% lactam in Polysorbate 80, Magnetic stirring 1 hour): ~10% of lactam
Observations of solvent solution: % of lactam solubilised ([3]; 3% lactam in Sisterna SP30-C, Magnetic stirring 1 hour): ~5% of lactam
Observations of solvent solution: % of lactam solubilised ([3]; 3% lactam in Sisterna SP50-C, Magnetic stirring 1 hour): ~5% of lactam
Observations of solvent solution: % of lactam solubilised ([3]; 3% lactam in Sisterna SP70-C, Magnetic stirring 1 hour): ~5% of lactam
Observations of solvent solution: % of lactam solubilised ([3]; 3% lactam in Sorbitan Oleate, Magnetic stirring 1 hour, 50 C.): ~5% of lactam
Observations of solvent solution: % of lactam solubilised ([3]; 4.2% lactam in PEG-40 Hydrogenated Castor Oil, 20 minutes sonication, temp reached 60-70 C., very dark colour): 50% of lactam
Observations of solvent solution: % of lactam solubilised ([3]; 4.2% lactam in PEG-40 Hydrogenated Castor Oil, 60 minutes sonication, temp reached 80 C., very dark colour): 75% of lactam
Observations of solvent solution: % of lactam solubilised ([3]; 4.2% lactam in PEG-40 Hydrogenated Castor Oil, 60 minutes sonication, temp reached 110 C., very dark colour): 75% of lactam
Observations of solvent solution: % of lactam solubilised ([3]; 4.2% lactam in PEG-40 Hydrogenated Castor Oil, Magnetic stirring 24 hours): ~25% of lactam
Observations of solvent solution: % of lactam solubilised ([3]; 4.2% lactam in PEG-40 Hydrogenated Castor Oil, Magnetic stirring 48 hours): ~25% of lactam
Observations of solvent solution: % of lactam solubilised ([3]; 4.2% lactam in PEG-40 Hydrogenated Castor Oil, initially stirred for 2, 4 and 6 hours): ≤ 25% solubilised).
Observations of solvent solution: % of lactam solubilised ([3]; 4.2% lactam in Polysorbate 20, 20 minutes sonication, temp reached 60-70 C.): ~50% of lactam
Observations of solvent solution: % of lactam solubilised ([3]; 4.2% lactam in Polysorbate 20, 60 minutes sonication, temp reached 90 C.): ~60-70% of lactam
Observations of solvent solution: % of lactam solubilised ([3]; 4.2% lactam in Polysorbate 20, Magnetic stirring 24 hours): ~25% of lactam
Observations of solvent solution: % of lactam solubilised ([3]; 4.2% lactam in Polysorbate 20, Magnetic stirring 48 hours): ~25% of lactam
Observations of solvent solution: % of lactam solubilised ([3]; 4.2% lactam in Polysorbate 20, initially stirred for 2, 4 and 6 hours): ≤ 25% solubilised).
Observations of solvent solution: % of lactam solubilised ([3]; PEG-40 Hydrogenated Castor Oil table: 3% lactam, Magnetic stirring 1 hour): ~25% of lactam
Observations of solvent solution: % of lactam solubilised ([3]; Polysorbate 20 table: 3% lactam, Magnetic stirring 1 hour): ~25% of lactam
colour change of lactam solution ([3]; when samples exceeded 50 C): dark brown colour
colour change of lactam solution ([3]; when the temperature reached 65 C, Polysorbate-20 and PEG-40 Hydrogenated Castor Oil variants only): virtually opaque
SMILES: C=C1NC(=O)C=C1c1ccccc1 [5-methylene-4-phenyl-1H-pyrrol-2(5H)-one]
Result (inhibition of bacterial respiration versus water control) (S. epidermidis): 82.5%
